Test results published in patent US8609043B2, “Use of a container of an inorganic additive containing plastic material” (M & P Patent Aktiengesellschaft, priority 2001, dated 2013).

Experiment: Stability of formulations containing testosterone in containers of different material (HPLC)
Assay type: physicochemical
Experimental: As an example for the aforementioned considerations in table 1 are shown the results of tests investigating the stability of formulations containing the steroid hormone testosterone in containers of different material.
The term “remaining drug after storage” is the amount of testosterone remaining in the formulation after storage for 22 hours. The remaining drug was measured by HPLC technique.

C[C@]12CC[C@H]3[C@@H](CCC4=CC(=O)CC[C@@]43C)[C@@H]1CC[C@@H]2O [testosterone]
Remaining drug after storage (%) (Methanolic formulation, primary packaging material Glass, storage for 22 hours): 100% | Remaining drug after storage (%) (Oil-based formulation, primary packaging material Glass, storage for 22 hours): ≈80% | Remaining drug after storage (%) (Oil-based formulation, primary packaging material LDPE + TiO2, storage for 22 hours): 100% | Remaining drug after storage (%) (Oil-based formulation, primary packaging material LDPE, storage for 22 hours): ≈30% | Remaining drug after storage (%) (Oil-based formulation, primary packaging material PP, storage for 22 hours): ≈50%
